Experiments:
[1] = Volume of distribution (area) in healthy volunteer (6 volunteers) at 800 mg, iv administered as single dose by gas liquid chromatographic method; assay type: ADME, organism-based; details: human, in vivo
[2] = Volume of distribution (area) in epileptic patient (6 patients) at 800 mg, iv administered as single dose by gas liquid chromatographic method; assay type: ADME, organism-based; details: human, in vivo
[3] = AUC (0 to infinity) in epileptic patient (6 patients) at 800 mg, iv administered as single dose by gas liquid chromatographic method; assay type: ADME, organism-based; set-up: dose 800 mg, route intravenous, time infinity; details: human, in vivo
[4] = Apparent volume of distribution in epileptic patient (6 patients) at 800 mg, iv administered as single dose by gas liquid chromatographic method; assay type: ADME, organism-based; details: human, in vivo, read-out: Vd(app)
[5] = Total clearance in healthy volunteer (6 volunteers) at 800 mg, iv administered as single dose by gas liquid chromatographic method; assay type: ADME, organism-based; details: human, in vivo
[6] = Tmax in epileptic patient (6 patients) at 800 mg, po administered as single dose by gas liquid chromatographic method; assay type: ADME, organism-based; details: human, in vivo
[7] = Extrapolated volume of distribution in epileptic patient (6 patients) at 800 mg, iv administered as single dose by gas liquid chromatographic method; assay type: ADME, organism-based; details: human, in vivo
[8] = Elimination rate constant in epileptic patient (6 patients) at 800 mg, po administered as single dose by gas liquid chromatographic method; assay type: ADME, organism-based; details: human, in vivo
[9] = Oral bioavailability in epileptic patient (6 patients) at 800 mg administered as single dose by gas liquid chromatographic method; assay type: ADME, organism-based; details: human, in vivo
[10] = Half life in healthy volunteer (6 volunteers) at 800 mg, iv administered as single dose by gas liquid chromatographic method; assay type: ADME, organism-based; details: human, in vivo
Homo sapiens [11] = assay: Volume of distribution (area) in epileptic patient (6 patients) at 800 mg, po administered as single dose by gas liquid chromatographic method; assay type: ADME, organism-based; details: in vivo
Homo sapiens [12] = assay: Toxicity in epileptic patient (6 patients) at 800 mg, po and iv administered as single dose by gas liquid chromatographic method; assay type: organism-based; details: in vivo
[13] = Half life in epileptic patient (6 patients) at 800 mg, iv administered as single dose by gas liquid chromatographic method; assay type: ADME, organism-based; details: human, in vivo
[14] = Total clearance in epileptic patient (6 patients) at 800 mg, iv administered as single dose by gas liquid chromatographic method; assay type: ADME, organism-based; details: human, in vivo
Homo sapiens [15] = assay: Extrapolated volume of distribution in epileptic patient (6 patients) at 800 mg, po administered as single dose by gas liquid chromatographic method; assay type: ADME, organism-based; details: in vivo
[16] = Apparent volume of distribution in healthy volunteer (6 volunteers) at 800 mg, iv administered as single dose by gas liquid chromatographic method; assay type: ADME, organism-based; details: human, in vivo, read-out: Vd(app)
[17] = Elimination rate constant in healthy volunteer (6 volunteers) at 800 mg, iv administered as single dose by gas liquid chromatographic method; assay type: ADME, organism-based; details: human, in vivo
[18] = Initial plasma concentration in epileptic patient (6 patients) at 800 mg, iv administered as single dose by gas liquid chromatographic method; assay type: ADME, organism-based; details: human
[19] = AUC (0 to 48 hrs) in epileptic patient (6 patients) at 800 mg, po administered as single dose by gas liquid chromatographic method; assay type: ADME, organism-based; set-up: dose 800 mg, time < 48 hr, route oral; details: human, in vivo
[20] = AUC (0 to infinity) in epileptic patient (6 patients) at 800 mg, po administered as single dose by gas liquid chromatographic method; assay type: ADME, organism-based; set-up: dose 800 mg, route oral, time infinity; details: human, in vivo
[21] = AUC (0 to 48 hrs) in epileptic patient (6 patients) at 800 mg, iv administered as single dose by gas liquid chromatographic method; assay type: ADME, organism-based; set-up: dose 800 mg, time < 48 hr, route intravenous; details: human, in vivo
[22] = Tmax in healthy volunteer (6 volunteers) at 800 mg, po administered as single dose by gas liquid chromatographic method; assay type: ADME, organism-based; details: human, in vivo
[23] = Elimination rate constant in epileptic patient (6 patients) at 800 mg, iv administered as single dose by gas liquid chromatographic method; assay type: ADME, organism-based; details: human, in vivo
[24] = Cmax in epileptic patient (6 patients) at 800 mg, po administered as single dose by gas liquid chromatographic method; assay type: ADME, organism-based; set-up: dose 800 mg, route oral; details: human, in vivo
[25] = Half life in epileptic patient (6 patients) at 800 mg, po administered as single dose by gas liquid chromatographic method; assay type: ADME, organism-based; details: human, in vivo

Structure (SMILES): CCCC(CCC)C(=O)[O-].[Na+] [VALPROATE SODIUM]
- Vd [1]: 10 L
- Vd [2]: 12.8 L
- AUC(0-inf) [3]: 807 µg·h/mL
- Vd [4]: 0.175 L/kg
- clearance [5]: 9 mL/min
- Tmax [6]: 1.2 h
- Vd [7]: 13.8 L
- k el [8]: 2.17e-05 s⁻¹
- bioavailability [9]: 96%
- half-life [10]: 12.8 h
- Vd (Homo sapiens [11]): 12.9 L
- Activity (Homo sapiens [12]): Non-toxic
- half-life [13]: 9 h
- clearance [14]: 16.7 mL/min
- Vd (Homo sapiens [15]): 13.1 L
- Vd [16]: 0.147 L/kg
- k el [17]: 1.52e-05 s⁻¹
- C0 [18]: 58.5 µg/mL
- AUC(0-t) at 48 h [19]: 749 µg·h/mL
- AUC(0-inf) [20]: 771 µg·h/mL
- AUC(0-t) at 48 h [21]: 785 µg·h/mL
- Tmax [22]: 1.8 h
- k el [23]: 2.21e-05 s⁻¹
- Cmax [24]: 71.8 µg/mL
- half-life [25]: 9 h

From ChEMBL document CHEMBL3784958, “Disposition of sodium valproate in epileptic patients” (Br J Clin Pharmacol, 1978)
